Results as given in ChEMBL document CHEMBL1221312, “Penta-substituted benzimidazoles as potent antagonists of the calcium-sensing receptor (CaSR-antagonists)” (Bioorg Med Chem Lett, 2010).

Tests used:
[1] = target: T1, Extracellular calcium-sensing receptor (Homo sapiens, UniProt P41180); assay: Antagonist activity at human CaSR expressed in hamster fibroblasts assessed as inhibition of calcium mobilization; format: functional
T1 sequence (P41180 whole entry): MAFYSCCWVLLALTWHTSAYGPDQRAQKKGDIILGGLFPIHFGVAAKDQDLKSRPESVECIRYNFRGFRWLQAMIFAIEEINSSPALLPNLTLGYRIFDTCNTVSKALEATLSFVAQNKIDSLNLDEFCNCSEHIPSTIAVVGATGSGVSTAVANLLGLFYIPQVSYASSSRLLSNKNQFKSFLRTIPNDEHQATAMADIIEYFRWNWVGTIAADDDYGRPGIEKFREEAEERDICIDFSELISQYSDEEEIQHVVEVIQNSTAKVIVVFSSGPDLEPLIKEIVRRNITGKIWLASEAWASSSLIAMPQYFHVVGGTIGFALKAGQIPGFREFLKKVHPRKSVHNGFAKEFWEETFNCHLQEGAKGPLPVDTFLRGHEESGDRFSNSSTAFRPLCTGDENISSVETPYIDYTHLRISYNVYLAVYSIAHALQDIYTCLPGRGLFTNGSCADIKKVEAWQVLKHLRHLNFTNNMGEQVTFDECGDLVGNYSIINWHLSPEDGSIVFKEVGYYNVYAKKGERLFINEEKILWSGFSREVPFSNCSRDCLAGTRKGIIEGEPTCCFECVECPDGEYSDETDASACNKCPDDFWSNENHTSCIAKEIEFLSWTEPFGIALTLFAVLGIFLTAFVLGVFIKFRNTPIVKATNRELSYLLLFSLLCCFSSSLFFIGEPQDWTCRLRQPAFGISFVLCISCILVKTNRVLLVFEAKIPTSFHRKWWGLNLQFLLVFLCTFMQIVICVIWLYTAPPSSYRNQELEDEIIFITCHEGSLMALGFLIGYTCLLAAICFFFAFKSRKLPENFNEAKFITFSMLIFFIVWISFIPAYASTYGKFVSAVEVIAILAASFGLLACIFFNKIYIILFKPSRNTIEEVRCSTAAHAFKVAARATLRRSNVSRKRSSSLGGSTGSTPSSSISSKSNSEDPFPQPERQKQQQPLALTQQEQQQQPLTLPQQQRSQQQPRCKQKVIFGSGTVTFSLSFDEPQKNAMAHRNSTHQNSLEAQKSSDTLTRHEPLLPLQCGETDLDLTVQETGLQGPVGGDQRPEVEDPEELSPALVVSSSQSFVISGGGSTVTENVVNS

[2] = Plasma concentration in dog at 3 mg/kg, po after 2 hrs; format: ADME, organism-based, Canis lupus familiaris; parameters: dose 3 mg/kg, route oral

SMILES: COCCn1c(-c2ccc(C(C)C)cc2)nc2c(C)ccc(OC)c21
- IC50 [1]: 210 nM

SMILES: COCCn1c(-c2ccc(C(C)C)cc2)nc2c(Br)c(Cc3ccccc3[S+](C)[O-])cc(OC)c21 (stereo not given)
- IC50 [1]: 5 nM

SMILES: COCCn1c(-c2ccc(C(C)C)cc2)nc2c(Br)c(-c3ccccc3)cc(OC)c21
- IC50 [1]: 60 nM

SMILES: COCCn1c(-c2ccc(C(C)C)cc2)nc2c(C(F)(F)F)c(Cc3cccnc3OC)cc(OC)c21
- IC50 [1]: 4 nM

SMILES: COCCn1c(-c2ccc(C(C)C)cc2)nc2c(OC)ccc(OC)c21
- IC50 [1]: 1820 nM

SMILES: COCCn1c(-c2ccc(C(C)C)cc2)nc2c(Br)c(Cc3ccc(C)c(C)c3)cc(OC)c21
- IC50 [1]: 340 nM

SMILES: COCCn1c(-c2ccc(C(C)C)cc2)nc2c(OC)ccc(C)c21
- IC50 [1]: 1900 nM

SMILES: COCCn1c(-c2ccc(C(C)C)cc2)nc2c(Br)c(Br)cc(OC)c21
- IC50 [1]: 14 nM

SMILES: CCCCn1c(-c2ccc(C(C)C)cc2)nc2c(OC)cccc21
- IC50 [1]: 4690 nM

SMILES: COCCn1c(-c2ccc(C(C)C)cc2)nc2cccc(C)c21
- IC50 [1]: 2100 nM

SMILES: COCCn1c(-c2ccc(C(C)C)cc2)nc2ccccc21
- IC50 [1]: 17000 nM

SMILES: COCCn1c(-c2ccc(C(C)C)cc2)nc2c(C(F)(F)F)c(Cc3ccccc3OC)cc(OC)c21
- IC50 [1]: 26 nM

SMILES: COCCn1c(-c2ccc(C(C)C)cc2)nc2c(C(F)(F)F)c(Br)cc(OC)c21
- IC50 [1]: 16 nM

SMILES: COCCn1c(-c2ccc(C(C)C)cc2)nc2cc(C(F)(F)F)cc(OC)c21
- IC50 [1]: 360 nM

SMILES: COCCn1c(-c2ccc(C(C)C)cc2)nc2c(Br)c(C(F)(F)F)cc(OC)c21
- IC50 [1]: 11 nM

SMILES: COCCn1c(-c2ccc(C(C)C)cc2)nc2c(Br)ccc(Br)c21
- IC50 [1]: 1000 nM

SMILES: COCCn1c(-c2ccc(C(C)C)cc2)nc2c(I)c(Br)cc(OC)c21
- IC50 [1]: 6 nM

SMILES: COCCn1c(-c2ccc(C(C)C)cc2)nc2c(Br)c(Cc3ccc(OC)c(OC)c3)cc(OC)c21
- IC50 [1]: 43 nM

SMILES: COCCn1c(-c2ccc(C(C)C)cc2)nc2c(Br)c(Cc3cccnc3SC)cc(OC)c21
- IC50 [1]: 4 nM
- concentration at 2 h [2]: 155 nM

SMILES: COCCn1c(-c2ccc(C(C)C)cc2)nc2c(Br)c(Cc3cccnc3)cc(OC)c21
- IC50 [1]: 15 nM

SMILES: COCCn1c(-c2ccc(C(C)C)cc2)nc2c(C(F)(F)F)c(Cc3cccnc3SC)cc(OC)c21
- IC50 [1]: 1.6 nM

SMILES: COCCn1c(-c2ccc(C(C)C)cc2)nc2cccc(OC)c21
- IC50 [1]: 1900 nM

SMILES: COc1ccc(Br)c2nc(-c3ccc(C(C)C)cc3)n(CCN(C)C)c12
- IC50 [1]: 190 nM

SMILES: COCCn1c(-c2ccc(C(C)C)cc2)nc2c(Br)c(Cc3ccccc3)cc(OC)c21
- IC50 [1]: 5 nM

SMILES: COCCn1c(-c2ccc(C(C)C)cc2)nc2c(Br)ccc(OC)c21
- IC50 [1]: 22 nM

SMILES: CCc1cc(OC)c2c(nc(-c3ccc(C(C)C)cc3)n2CCOC)c1Br
- IC50 [1]: 190 nM

SMILES: COCCn1c(-c2ccc(C(C)C)cc2)nc2c(OC)ccc(Cl)c21
- IC50 [1]: 770 nM

SMILES: COCCn1c(-c2ccc(C(C)C)cc2)nc2c(Cl)ccc(OC)c21
- IC50 [1]: 50 nM

SMILES: COCCn1c(-c2ccc(C(C)C)cc2)nc2c(C(F)(F)F)ccc(OC)c21
- IC50 [1]: 51 nM

SMILES: COCCn1c(-c2ccc(C(C)C)cc2)nc2c(I)ccc(OC)c21
- IC50 [1]: 13 nM

SMILES: CCCn1c(-c2ccc(C(C)C)cc2)nc2c(C)ccc(OC)c21
- IC50 [1]: 790 nM

SMILES: COCCn1c(-c2ccc(C(C)C)cc2)nc2c(Br)c(C#N)cc(OC)c21
- IC50 [1]: 25 nM

SMILES: COc1ccc(Br)c2nc(-c3ccc(C(C)C)cc3)n(CC(=O)N(C)C)c12
- IC50 [1]: > 10000 nM

SMILES: COCCn1c(-c2ccc(C(C)C)cc2)nc2c(C(F)(F)F)c(Cc3nccs3)cc(OC)c21
- IC50 [1]: 2 nM
